Assay results from patent publication US10259843B2, “Cyclic tetrapeptide stereoisomers” (University of Kansas, priority 2014, dated 2019).
“Also recorded” adds a separate entry of the source. Like-named read-outs stand apart in the source and are kept apart here. Non-standard residues stand in square brackets, D forms with d. Residues, ends and D or L forms follow the SMILES beside them.

Columns and labels:
[1] = acetic acid stretching assay; type: in vivo; details: 10 mg/kg and 30 mg/kg
Method: The acetic acid stretching assay is a model for visceral pain and is the most popular chemical assay of nociception. In the assay, subjects are given a subcutaneous (s.c.) injection of drug or vehicle 60 min before an intraperitoneal (i.p.) injection of 0.6% acetic acid. After administration of the acetic acid, the subjects are placed in clear cages (11×7×5 in) and scored for abdominal stretches during a 20 min observation period. Stretching was defined as body contortions, belly pressing, and extension of the hind limbs from which visceral nociception was inferred. […] And while the effect of 3607 was not as pronounced as with morphine, the observed reductions in stretching were significant, indication that 3607 has a significant pain reduction effect.

formalin assay = type: in vivo, rodent; details: 10 mg/kg oral, vs saline i.p.
Method: It entails the injection of a dilute solution of formalin into the surface of the rodent's hindpaw, followed by the scoring of stereotypical behaviors such as flinching, licking, and biting of the affected hindpaw. The behaviors last for approximately 1 hour, with the early or acute stage (directly after injection) reflecting direct activation of nociceptors and the late or tonic phase (15 to 20 minutes after the injection) reflecting inflammation.

locomotion (CLAMS) = type: in vivo; parameters: key: ✓ indicates tested (if no other comment then no significant effect); details: 10 mg/kg, p.o.
respiratory depression = type: in vivo; parameters: key: ✓ indicates tested (if no other comment then no significant effect)
[2] = biological target: kappa opioid receptor (KOR) (Homo sapiens, UniProt P41145); assay: radioligand binding assay, kappa opioid receptor affinity
Method: (§1) The peptides of Table 1 shown below in Tables 3 and 4 were evaluated in radioligand binding assays for mu, kappa and delta opioid receptor affinities in vitro, and in the mouse 55° C. warm water tail withdrawal assay in vivo for antinociception and opioid antagonist activity.

[3] = conditioned place response assay; details: oral administration of the peptides
[4] = rotorod test for sedation and motor coordination; type: in vivo; parameters: key: ✓ indicates tested (if no other comment then no significant effect); details: 10 mg/kg, p.o.
[5] = mouse 55° C. warm water tail withdrawal assay, antinociception; type: in vivo; details: for ED50 (95% CI) i.c.v. / ED50 (95% CI) p.o.: antinociception; for Receptors involved: opioid receptors contributing to antinociception
Method: as §1

[6] = biological target: delta opioid receptor (DOR) (Homo sapiens, UniProt P41143); assay: radioligand binding assay, delta opioid receptor affinity; details: for Ki: n in parentheses, read-out: Ki (nM ± SEM) DOR
Method: as §1

[7] = nerve constriction assay for neuropathic pain; type: in vivo, rodent
Method: In the nerve constriction assay, a nerve of a subject rodent is chronically constricted or cuffed and then the animal is assessed for response to pain stimuli such a paw withdrawal. […] Gabapentin is an accepted treatment for neuropathic pain.

acute tolerance model = details: in vivo
[8] = system: opioid receptors (KOR, MOR, DOR); assay: mouse 55° C. warm water tail withdrawal assay, opioid antagonist activity; type: in vivo; details: for Antagonism (opioid receptor antagonised in vivo): dose not given
Method: as §1

[9] = other pain models (formalin, acetic acid stretching, nerve constriction; FIGS. 1-3B); details: in vivo
From the text: These models are based on the formalin assay, the acetic acid stretching assay, and the nerve constriction assay. The formalin and acetic acid stretching assays are indicative of activity against inflammatory pain (i.e., nociceptive pain) and the nerve constriction assay is indicative of activity against neuropathic pain.

mu opioid receptor (MOR) = mu opioid receptor (MOR) (Homo sapiens, UniProt P35372); assay: radioligand binding assay, mu opioid receptor affinity
Method: as §1

[10] = stress-induced reinstatement of cocaine seeking behavior, conditioned place preference assay; details: in vivo
From the text: In interesting comparison to the other cyclic tetrapeptides, compound 3613 (DDDD) is a mu opioid receptor (MOR) agonist and delta opioid receptor (DOR) antagonist. MOR agonists/DOR antagonists are of great interest because of their decreased liability profile (decreased addiction potential and liability profile such as tolerance) compared to MOR agonists like morphine.

[11] = n in parentheses, read-out: Ki (nM ± SEM) KOR
[12] = n in parentheses, read-out: Ki (nM ± SEM) MOR
[13] = 10 mg/kg p.o., compared to 50 mg/kg i.p. gabapentin and 2801

kappa opioid receptor (KOR), sequence (P41145 whole entry): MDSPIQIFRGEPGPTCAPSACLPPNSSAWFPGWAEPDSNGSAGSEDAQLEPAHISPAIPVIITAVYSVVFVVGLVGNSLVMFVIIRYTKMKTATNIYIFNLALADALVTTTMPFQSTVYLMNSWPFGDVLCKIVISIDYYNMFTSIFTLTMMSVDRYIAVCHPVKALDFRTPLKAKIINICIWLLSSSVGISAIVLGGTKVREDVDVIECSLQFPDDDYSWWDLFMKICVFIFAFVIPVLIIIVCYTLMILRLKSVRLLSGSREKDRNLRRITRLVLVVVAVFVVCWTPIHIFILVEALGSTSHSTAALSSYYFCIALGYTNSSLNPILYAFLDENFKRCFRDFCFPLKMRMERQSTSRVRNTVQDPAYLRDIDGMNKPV
delta opioid receptor (DOR), sequence (P41143 whole entry): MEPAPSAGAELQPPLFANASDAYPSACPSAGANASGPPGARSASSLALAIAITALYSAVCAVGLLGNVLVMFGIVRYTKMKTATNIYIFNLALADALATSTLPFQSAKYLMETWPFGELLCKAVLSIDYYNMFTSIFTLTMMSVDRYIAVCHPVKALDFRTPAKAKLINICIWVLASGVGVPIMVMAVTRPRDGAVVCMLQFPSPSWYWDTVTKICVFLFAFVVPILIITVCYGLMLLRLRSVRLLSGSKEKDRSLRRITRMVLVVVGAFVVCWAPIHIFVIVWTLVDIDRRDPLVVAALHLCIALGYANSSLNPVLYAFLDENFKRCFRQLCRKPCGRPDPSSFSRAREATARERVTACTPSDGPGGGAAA
mu opioid receptor (MOR), sequence (P35372 whole entry): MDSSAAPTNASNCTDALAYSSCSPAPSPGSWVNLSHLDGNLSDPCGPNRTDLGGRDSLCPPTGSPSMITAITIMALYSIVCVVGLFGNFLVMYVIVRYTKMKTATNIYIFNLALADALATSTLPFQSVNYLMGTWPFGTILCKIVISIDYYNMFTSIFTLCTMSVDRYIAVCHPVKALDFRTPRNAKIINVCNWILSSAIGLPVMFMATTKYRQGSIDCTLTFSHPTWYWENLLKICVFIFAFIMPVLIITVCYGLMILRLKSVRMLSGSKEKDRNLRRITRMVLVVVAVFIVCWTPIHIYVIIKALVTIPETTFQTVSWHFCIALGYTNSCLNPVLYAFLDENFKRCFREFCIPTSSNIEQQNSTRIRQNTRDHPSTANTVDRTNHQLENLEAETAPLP

SMILES | Locomotion (CLAMS, 10 mg/kg, p.o.) (locomotion (CLAMS)) | Respiratory depression 10 mg/kg p.o. (respiratory depression) | Ki [2, 11] | conditioned place preference (drug seeking behavior) or conditioned place aversion [3] | Rotorod (10 mg/kg, p.o.) [4] | ED50 (95% CI) i.c.v. [5] | ED50 (95% CI) p.o. [5] | Receptors involved [5] | Ki [6] | Acute Tolerance ED50 shift (acute tolerance model) | Antagonism (dose, nmol) ([8]; 30 nmol) | analgesic activity in other pain models [9] | Ki (mu opioid receptor (MOR); [12]) | relief of neuropathic pain [7, 13] | Antagonism (dose, nmol) ([8]; 100 nmol) | Antagonism (opioid receptor antagonised in vivo) [8] | further results
O=C1N[C@H](Cc2ccccc2)C(=O)N2CCC[C@@H]2C(=O)N[C@H](Cc2ccccc2)C(=O)N[C@H]1Cc1c[nH]c2ccccc12 [JVA 3607, cyclo-[D-Phe-D-Pro-D-Phe-Trp]] (cyclo([dF][dP][dF]W)) | ✓ | ✓ | 2560 ± 480 nM | no evidence of inducing drug seeking behavior; also recorded: do not show evidence of conditioned place preference (drug seeking behavior) or conditioned place aversion | ✓ | 1.00 nmol | 4.12 mg/kg | mu opioid receptors (MOR) are not involved; also recorded: KOR, DOR | > 10000 nM | 5.19 fold | None (30) | significant analgesic properties; also recorded: show activity against pain | 7780 ± 410 nM |  |  |  | antinociception (abdominal stretches) [1]: significant antinociception; time spent licking after formalin administration (formalin assay): significant reduction; relief of neuropathic pain ([7]; 3 mg/kg, 10 mg/kg, and 30 mg/kg, compared to 50 mg/kg gabapentin): significant relief of neuropathic pain
O=C1N[C@H](Cc2ccccc2)C(=O)N[C@H](Cc2c[nH]c3ccccc23)C(=O)N[C@@H](Cc2ccccc2)C(=O)N2CCC[C@H]12 [JVA 3608, cyclo[Phe-D-Pro-D-Phe-D-Trp]] (cyclo(F[dP][dF][dW])) | Sig. hypo- | evidence of respiratory depression; also recorded: Resp | 353 ± 19 nM |  | ✓ | 0.56 nmol | 4.72 mg/kg | KOR, MOR, and DOR | > 10000 nM | 9.87 fold |  | significant analgesic properties | 5800 ± 1450 nM | significant relief of neuropathic pain | DOR (100) | exhibit DOR antagonist activity | Ki ([2]; read-out: Ki KOR): < 1000 nM; affinity for DOR [6]: negligible affinity; analgesic activity in other pain models ([9]; listed as 3708): show activity against pain; Ki (mu opioid receptor (MOR); read-out: Ki MOR): > 1000 nM
O=C1N[C@H](Cc2ccccc2)C(=O)N[C@H](Cc2c[nH]c3ccccc23)C(=O)N[C@H](Cc2ccccc2)C(=O)N2CCC[C@H]12 [JVA 3613, cyclo[D-Phe-D-Pro-D-Phe-D-Trp]] (cyclo([dF][dP][dF][dW])) | ✓ | ✓ | 2010 ± 270 nM |  | ✓ | 0.51 nmol | 2.47 mg/kg | kappa opioid receptors (KOR) are not involved; also recorded: DOR, MOR | > 10000 nM |  | DOR (30) |  | > 10000 nM |  |  | exhibit DOR antagonist activity | prevention of stress-induced reinstatement of cocaine seeking behavior [10]: effective in preventing stress-induced reinstatement of cocaine seeking behavior
O=C1N[C@H](Cc2ccccc2)C(=O)N2CCC[C@@H]2C(=O)N[C@@H](Cc2ccccc2)C(=O)N[C@H]1Cc1c[nH]c2ccccc12 [JVA 3605, cyclo[D-Phe-D- Pro-Phe-Trp]] (cyclo([dF][dP]FW)) | ✓ | evidence of respiratory depression; also recorded: Sig. resp | 5120 ± 690 nM | no evidence of inducing drug seeking behavior; also recorded: do not show evidence of conditioned place preference (drug seeking behavior) or conditioned place aversion | effects similar to the KOR selective agonist U50,488, suggesting sedation; also recorded: ✓ (sig | 0.75 nmol | 7.62 mg/kg | KOR, MOR, and DOR | > 10000 nM |  | KOR (30), | significant analgesic properties; also recorded: show activity against pain | > 10000 nM | significant relief of neuropathic pain | DOR (100) | exhibits KOR antagonist activity; also recorded: exhibit DOR antagonist activity | 
